This note sets out measurements from PMC11641365, “Evaluation of In Vitro Biological Activity of Flavanone/Chromanone Derivatives: Molecular Analysis of Anticancer Mechanisms in Colorectal Cancer” (International Journal of Molecular Sciences, 2024).

What all share (assay type): cell-based, human
One assay relates to SW620. Description: MTT test after pre-incubation with antioxidants NAC or Trolox. The note with it: vs cells without antioxidant pre-incubation. The procedure: Moreover, the elevation of ROS levels was accompanied by a decrease in intracellular GSH. To investigate the role of ROS in the cytotoxic activity of flavonoid derivatives against cancer cells, LoVo cancer cells were pre-treated with antioxidants, NAC or a water-soluble derivative of vitamin E (Trolox), for 1 h before exposure to the studied compounds. Subsequently, the MTT assay was performed.
To elucidate the involvement of ROS in the cytotoxic effects of the investigated compounds, cells were pre-treated with the vitamin E (Trolox, Sigma-Aldrich, St. Louis, MO, USA) or N-Acetylcysteine (NAC) antioxidants for 1 h. Cells were seeded into sterile, colorless 96-well microplates at a density of 6–8 × 10^3 cells/mL, contingent upon the cell line. Following a 24 h culture period, Trolox or NAC was added at a final concentration of 50 μM and 3 mM, respectively. After 1 h of incubation, the antioxidants were removed by washing, and test compounds were administered at appropriate concentrations (10–200 μM) in fresh cell culture medium, followed by a 24 h incubation. The MTT assay was then conducted under identical experimental conditions, as detailed in Section 2.2.

The subject of the next assay is LoVo. Description: Mitochondrial membrane potential (ΔΨm), JC-1 probe. The note with it: compound at IC50, vs control. From the text: Changes in mitochondrial potential in cancer cells exposed to the tested derivatives were monitored using the fluorescent probe JC-1. In non-apoptotic cells, JC-1 aggregates emit red-orange fluorescence. During changes in mitochondrial membrane potential, such as those associated with the initiation of PCD stages (both hyperpolarization and depolarization of mitochondrial membranes), JC-1 is converted to monomers, emitting green fluorescence.
5,5,6,6-Tetrachloro-1,1,3,3-tetraethylbenzimidazolylcarbocyanine iodide (JC-1) is one of the most reliable fluorescent probes used to assess changes in mitochondrial membrane potential (ΔΨ). In living cells with intact mitochondrial membranes, the lipophilic, cationic dye JC-1 penetrates the negatively charged mitochondrial matrix as a monomer, where it forms fluorescent aggregates with red-orange fluorescence (λex = 514 nm, λem = 590). […] The fluorescence ratio of aggregates (λem = 590 nm) and monomers (λem = 529 nm)—590 nm/529 nm—reflects the level of damage to the mitochondrial membrane.
Cells were seeded in black 96-well fluorometric microplates at a density of 10 × 10^3 cells/mL. […] Following treatment, the medium was removed, and the cell monolayers were washed twice with HBSS (140 mM NaCl, 5 mM KCl, 0.8 mM MgCl2, 1.8 mM CaCl2, 1 mM Na2HPO4, 10 mM HEPES, and 1% glucose). Then, 50 μL of a JC-1 solution in HBSS was added to each well, and the cells were incubated for 30 min in the dark at 37 °C (final JC-1 concentration 5 μM). After removing the fluorescent dye and replacing it with fresh HBSS, fluorescence measurements were taken using a Perkin-Elmer LS-5B spectrofluorometer (Perkin-Elmer LS-5B spectrofluorometer, Waltham, MA, USA). The excitation and emission wavelengths for JC-1 monomers were 514 nm and 529 nm, respectively, while for aggregates, they were 514 nm and 590 nm. The results were expressed as a percentage change in the fluorescence ratio of JC-1 aggregates to JC-1 monomers compared to the control, which was set at 100%.

The next assay deals with Caco-2. The experiment in a line: Cell cycle analysis via flow cytometry (propidium iodide). The note with it: compound at IC50, 24 h, vs control. The procedure:
The most commonly used fluorescent dyes for cell cycle analysis are fluorochromes that penetrate the cell membrane into the interior of permeabilized cells and bind stoichiometrically to DNA via intercalation, e.g., DAPI, propidium iodide (PI). The analysis is performed on cells fixed in ethanol. In this work, the cell cycle analysis was performed using the method described by Darzynkiewicz and Juan.
Cells (10 × 10^3) were seeded in 35 mm dishes and cultured in the medium for 24 h to attain the logarithmic growth phase. […] Subsequently, cells were trypsinized and centrifuged for 10 min at 400× g at 4 °C. The cell suspension in 100 μL of PBS was fixed in 1 mL of 70% ethanol (−20 °C) and stored at this temperature until analysis. Immediately before analysis, the ethanol-fixed cell suspension was centrifuged at 10,000 rpm for 10 min at 4 °C. The pellet was washed with cold (4 °C) PBS to remove residual ethanol, and the cell suspension was centrifuged again under the same conditions. A volume of 300 μL of PBS containing 4 mg/mL propidium iodide (final concentration 75 μM) and 1 mg/mL RNAse A (final concentration 20 μg/mL) was added to the cell pellet and incubated for at least 30 min at 37 °C in the dark. Stained cells were analyzed using a flow cytometer (Becton Dickinson, Franklin Lakes, NJ, USA), counting 10,000 cells in each sample. Data were analyzed using FlowJo 10.10 software (FlowJo, Williamson Way Ashland, OR, USA).
In general terms: A flow cytometer gives signals particle by particle.

The next assay concerns HMEC-1. The experiment in a line: MTT cell viability assay, model of normal cells. The note with it: difference of IC50 values. The procedure:
The cytotoxic activity of the 3-benzylideneflavanones, 3-benzylidenechromanones derivatives (compounds 1, 2, 3, 4, 5) and 5′-(3-methoxyphenyl)-2-phenyl-4′,5′-dihydro-4H-spiro[chromano-3,3′-pirazol]-4-one (compound 3a) was evaluated using the MTT assay (4,5-dimethylthiazol-2-yl)-2,5-diphenyltetrazoliumbromide), a colorimetric method that quantifies cell viability.
Cell viability was determined using the metabolic microplate spectrophotometric assay with Methylthiazolyl diphenyltetrazolium bromide (MTT) (Sigma-Aldrich; St. Louis, MO, USA). The MTT method belongs to metabolic tests for determining cell viability and consists of measuring the absorbance of a violet solution of formazan, a product of the reduction of a water-soluble yellow MTT by oxidoreductive enzymes (mainly mitochondrial succinate dehydrogenase) of living cells. […]
The appropriate number of cells for a given cell line (6–8 × 10^3 cells/mL) were seeded onto colorless, sterile 96-well microplates (Nunc, Roskilde, Denmark) in the number appropriate for a given cell line. […] The absorbance of the formazan solution, after gentle mixing, was read at a wavelength of λ = 580 nm and a reference wavelength of λ = 720 nm (Biotek Power Wave HT, Biotek Instruments, Winooski, VT, USA). […] The absorbance of the control was taken as 100%.

For `O=C1/C(=C/c2ccccc2)C(c2ccccc2)Oc2ccccc21` (stereo not shown) [Compound 5], the “Change of the IC50 value after pre-incubation with Trolox” value in the assay with SW620 was “Statistically significant increases in the IC50 value”.

In the case of `O=C1/C(=C/c2ccccc2)COc2ccccc21` [Compound 1], the “Decrease in ΔΨm (depolarization)” value in the assay with LoVo was ~ 20%. Besides, the “Increase in the G2/M phase cell percentage” value in the assay with Caco-2 was determined as 30%. The “IC50 against HMEC-1 higher than for the majority of tested cancer cell lines (selectivity)” value in the assay with HMEC-1 is reported as “approximately 10 µM”.
